Data published in US20240109917A1 (ACTELION PHARMACEUTICALS LTD, priority 2020, published 2024).

Molecular target: VEGFR2, unphosphorylated (Homo sapiens (Human), UniProt P35968)
Experiment: VEGFR ADP GLO Assay
Type: biochemical

Chain of VEGFR2, unphosphorylated (P35968 20-1356): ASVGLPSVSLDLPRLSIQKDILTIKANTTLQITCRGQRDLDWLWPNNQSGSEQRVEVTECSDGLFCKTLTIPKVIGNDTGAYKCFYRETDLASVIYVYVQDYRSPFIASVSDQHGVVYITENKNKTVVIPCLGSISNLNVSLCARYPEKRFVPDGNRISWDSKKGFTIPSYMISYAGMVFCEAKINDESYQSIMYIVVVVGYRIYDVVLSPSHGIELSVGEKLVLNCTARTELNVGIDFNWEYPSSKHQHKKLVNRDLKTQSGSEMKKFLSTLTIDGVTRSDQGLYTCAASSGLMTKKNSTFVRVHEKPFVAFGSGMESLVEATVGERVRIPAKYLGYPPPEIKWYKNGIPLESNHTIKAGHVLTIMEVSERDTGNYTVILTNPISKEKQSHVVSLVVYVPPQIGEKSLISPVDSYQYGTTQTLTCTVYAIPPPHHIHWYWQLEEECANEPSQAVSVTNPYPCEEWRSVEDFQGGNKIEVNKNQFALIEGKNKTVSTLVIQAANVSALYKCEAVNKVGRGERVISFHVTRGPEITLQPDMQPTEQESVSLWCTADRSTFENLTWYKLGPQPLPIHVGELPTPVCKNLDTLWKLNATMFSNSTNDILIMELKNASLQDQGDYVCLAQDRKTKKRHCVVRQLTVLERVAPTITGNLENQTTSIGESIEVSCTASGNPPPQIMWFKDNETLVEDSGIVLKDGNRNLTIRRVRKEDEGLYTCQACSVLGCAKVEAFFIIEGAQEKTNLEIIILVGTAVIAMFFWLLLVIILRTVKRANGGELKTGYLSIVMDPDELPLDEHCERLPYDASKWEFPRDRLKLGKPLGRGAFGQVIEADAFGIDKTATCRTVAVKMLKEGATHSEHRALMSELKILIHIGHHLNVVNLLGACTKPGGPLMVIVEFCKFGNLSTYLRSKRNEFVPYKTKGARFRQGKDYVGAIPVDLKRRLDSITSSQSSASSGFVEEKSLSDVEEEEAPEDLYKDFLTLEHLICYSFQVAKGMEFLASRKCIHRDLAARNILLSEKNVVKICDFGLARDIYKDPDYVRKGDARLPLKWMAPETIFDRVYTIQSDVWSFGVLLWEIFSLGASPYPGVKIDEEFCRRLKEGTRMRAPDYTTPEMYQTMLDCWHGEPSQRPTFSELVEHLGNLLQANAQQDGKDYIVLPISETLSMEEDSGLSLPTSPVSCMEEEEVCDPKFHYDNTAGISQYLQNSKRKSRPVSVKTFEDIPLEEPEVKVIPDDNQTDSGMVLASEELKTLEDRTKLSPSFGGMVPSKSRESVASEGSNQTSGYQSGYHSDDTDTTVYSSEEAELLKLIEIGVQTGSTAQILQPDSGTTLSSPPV

With `COCCn1cc(-c2cn3ncc(C(=O)Nc4cc(NC(=O)CCN5CC6CCC5CC6)cnc4C)c3s2)cn1` [Example 100, N-(5-(3-(2-azabicyclo[2.2.2]octan-2-yl)propanamido)-2-methylpyridin-3-yl)-2-(1-(2-methoxyethyl)-1H-pyrazol-4-yl)pyrazolo[5,1-b]thiazole-7-carboxamide] the IC50 was > 7.5 µM.
`COCCn1cc(-c2cn3ncc(C(=O)Nc4cc(NC(=O)CCN5CCC56CCC6)cnc4C)c3s2)cn1` [Example 95, N-(5-(3-(1-azaspiro[3.3]heptan-1-yl)propanamido)-2-methylpyridin-3-yl)-2-(1-(2-methoxyethyl)-1H-pyrazol-4-yl)pyrazolo[5,1-b]thiazole-7-carboxamide] was tested, and the IC50 was > 7.5 µM.
For `Cc1ncc(C(=O)NCCN2CCC3(CCC3)C2)cc1NC(=O)c1cnn2cc(-c3cnn(C)c3)sc12` [Example 113, N-(5-((2-(6-azaspiro[3.4]octan-6-yl)ethyl)carbamoyl)-2-methylpyridin-3-yl)-2-(1-methyl-1H-pyrazol-4-yl)pyrazolo[5,1-b]thiazole-7-carboxamide], the IC50 was > 7.5 µM.
`Cc1ncc(C(=O)NCCN2Cc3ncsc3C2)cc1NC(=O)c1cnn2cc(-c3cnn(C)c3)sc12` [Example 111, N-(5-((2-(4H-pyrrolo[3,4-d]thiazol-5 (6H)-yl)ethyl)carbamoyl)-2-methylpyridin-3-yl)-2-(1-methyl-1H-pyrazol-4-yl)pyrazolo[5,1-b]thiazole-7-carboxamide] was tested, and the IC50 was > 7.5 µM.
`Cc1ncc(C(=O)NCCN2CC3COCC3C2)cc1NC(=O)c1cnn2cc(-c3cnn(C)c3)sc12` (stereo not drawn) [Example 112, 2-(1-methyl-1H-pyrazol-4-yl)-N-(2-methyl-5-((2-(tetrahydro-1H-furo[3,4-c]pyrrol-5 (3H)-yl)ethyl)carbamoyl)pyridin-3-yl)pyrazolo[5,1-b]thiazole-7-carboxamide] was tested, and the IC50 was > 7.5 µM.
`Cc1ncc(C(=O)NCCN2CCOCC23CC3)cc1NC(=O)c1cnn2cc(-c3cnn(C)c3)sc12` [Example 110, N-(5-((2-(7-oxa-4-azaspiro[2.5]octan-4-yl)ethyl)carbamoyl)-2-methylpyridin-3-yl)-2-(1-methyl-1H-pyrazol-4-yl)pyrazolo[5,1-b]thiazole-7-carboxamide] showed an IC50 of 0.664 µM.
`COCCn1cc(-c2cn3ncc(C(=O)Nc4cc(C(=O)NCCN5CCC(F)(F)C5)cnc4C)c3s2)cn1` [Example 167, N-(5-((2-(3,3-difluoropyrrolidin-1-yl)ethyl)carbamoyl)-2-methylpyridin-3-yl)-2-(1-(2-methoxyethyl)-1H-pyrazol-4-yl)pyrazolo[5,1-b]thiazole-7-carboxamide] was tested, and the IC50 was > 7.5 µM.
For `Cc1ncc(C(=O)NCCN2CCC3(CC3)C2)cc1NC(=O)c1cnn2cc(-c3ccncc3)sc12` [Example 153, N-(5-((2-(5-azaspiro[2.4]heptan-5-yl)ethyl)carbamoyl)-2-methylpyridin-3-yl)-2-(pyridin-4-yl)pyrazolo[5,1-b]thiazole-7-carboxamide], the IC50 was > 7.5 µM.
For `Cc1ncc(C(=O)NCCN2CCCC2(C)C)cc1NC(=O)c1cnn2cc(-c3cnn(C)c3C)sc12` [Example 173, 2-(1,5-dimethyl-1H-pyrazol-4-yl)-N-(5-((2-(2,2-dimethylpyrrolidin-1-yl)ethyl)carbamoyl)-2-methylpyridin-3-yl)pyrazolo[5,1-b]thiazole-7-carboxamide], the IC50 was > 7.5 µM.
For `Cc1ncc(C(=O)NCCN2CCCC2(C)C)cc1NC(=O)c1cnn2cc(-c3ccn(C)n3)sc12` [Example 9, N-(5-((2-(2,2-dimethylpyrrolidin-1-yl)ethyl)carbamoyl)-2-methylpyridin-3-yl)-2-(1-methyl-1H-pyrazol-3-yl)pyrazolo[5,1-b]thiazole-7-carboxamide], the IC50 was > 7.5 µM.
In the case of `Cc1ncc(C(=O)NCCN2CC(C)(C)C2)cc1NC(=O)c1cnn2cc(-c3cn(C)cn3)sc12` [Example 161], the IC50 is reported as > 7.5 µM.
For `Cc1ncc(C(=O)NCCN2CCCOCC2)cc1NC(=O)c1cnn2cc(-c3cnn(C)c3)sc12` [Example 121, N-(5-((2-(1,4-oxazepan-4-yl)ethyl)carbamoyl)-2-methylpyridin-3-yl)-2-(1-methyl-1H-pyrazol-4-yl)pyrazolo[5,1-b]thiazole-7-carboxamide], the IC50 was > 7.5 µM.
`Cc1ncc(C(=O)NCCN2CCCC2(C)C)cc1NC(=O)c1cnn2cc(-c3ccc(=O)[nH]n3)sc12` [Example 141, N-(5-((2-(2,2-dimethylpyrrolidin-1-yl)ethyl)carbamoyl)-2-methylpyridin-3-yl)-2-(6-oxo-1,6-dihydropyridazin-3-yl)pyrazolo[5,1-b]thiazole-7-carboxamide] was tested, and the IC50 was > 7.5 µM.
`Cc1ncc(NC(=O)NCCC2CCN(C)CC2)cc1NC(=O)c1cnn2cc(-c3cnn(C)c3)sc12` [Example 108, 2-(1-methyl-1H-pyrazol-4-yl)-N-(2-methyl-5-(3-(2-(1-methylpiperidin-4-yl)ethyl)ureido)pyridin-3-yl)pyrazolo[5,1-b]thiazole-7-carboxamide] was tested, and the IC50 was > 2.5 µM.
With `Cc1ncc(C(=O)NCCN2CCC(F)(F)CC2)cc1NC(=O)c1cnn2cc(-c3cccnc3)sc12` [Example 157, N-(5-((2-(4,4-difluoropiperidin-1-yl)ethyl)carbamoyl)-2-methylpyridin-3-yl)-2-(pyridin-3-yl)pyrazolo[5,1-b]thiazole-7-carboxamide] the IC50 was > 7.5 µM.
In the case of `Cc1ncc(C(=O)NCCN2CC3CCC2CC3)cc1NC(=O)c1cnn2cc(-c3cnn(CC(N)=O)c3)sc12` [Example 150, N-(5-((2-(2-azabicyclo[2.2.2]octan-2-yl)ethyl)carbamoyl)-2-methylpyridin-3-yl)-2-(1-(2-amino-2-oxoethyl)-1H-pyrazol-4-yl)pyrazolo[5,1-b]thiazole-7-carboxamide], the IC50 is reported as > 7.5 µM.
In the case of `Cc1ncc(C(=O)NCCN2CCC3(CC3)C2)cc1NC(=O)c1cnn2cc(-c3cccnc3)sc12` [Example 159, N-(5-((2-(5-azaspiro[2.4]heptan-5-yl)ethyl)carbamoyl)-2-methylpyridin-3-yl)-2-(pyridin-3-yl)pyrazolo[5,1-b]thiazole-7-carboxamide], the IC50 is reported as > 7.5 µM.
For `Cc1ncc(C(=O)NCCN2CCCC2(C)C)cc1NC(=O)c1cnn2cc(-c3cncnc3)sc12` [Example 139, N-(5-((2-(2,2-dimethylpyrrolidin-1-yl)ethyl)carbamoyl)-2-methylpyridin-3-yl)-2-(pyrimidin-5-yl)pyrazolo[5,1-b]thiazole-7-carboxamide], the IC50 was > 7.5 µM.
In the case of `CC(=O)Nc1ccnc(-c2cn3ncc(C(=O)Nc4cc(C(=O)NCCN5CC6CCC5CC6)cnc4C)c3s2)c1` [Example 146, N-(5-((2-(2-azabicyclo[2.2.2]octan-2-yl)ethyl)carbamoyl)-2-methylpyridin-3-yl)-2-(4-acetamidopyridin-2-yl)pyrazolo[5,1-b]thiazole-7-carboxamide], the IC50 is reported as > 7.5 µM.
With `Cc1ncc(C(=O)NCCN2CCCC2(C)C)cc1NC(=O)c1cnn2cc(-c3cn(C)nc3C)sc12` [Example 174, 2-(1,3-dimethyl-1H-pyrazol-4-yl)-N-(5-((2-(2,2-dimethylpyrrolidin-1-yl)ethyl)carbamoyl)-2-methylpyridin-3-yl)pyrazolo[5,1-b]thiazole-7-carboxamide] the IC50 was > 7.5 µM.
For `Cc1ncc(C(=O)NCCN2CCC3(CC3)C2)cc1NC(=O)c1cnn2cc(-c3cnn(C)c3C)sc12` [Example 170, N-(5-((2-(5-azaspiro[2.4]heptan-5-yl)ethyl)carbamoyl)-2-methylpyridin-3-yl)-2-(1,5-dimethyl-1H-pyrazol-4-yl)pyrazolo[5,1-b]thiazole-7-carboxamide], the IC50 was > 7.5 µM.
